Measurements: patent US9868697B2, “Phytosphingosine derivatives, and composition comprising same for preventing and treating inflammatory skin diseases, autoimmune diseases, and hyperkeratosis diseases” (THE CATHOLIC UNIVERSITY OF KOREA INDUSTRY—ACADEMIC …, priority 2011, dated 2018)
“Also recorded” adds a separate entry of the source.

Tests used:
[1] = tested on: NF-κB; test: Phosphorylation of IκBα and NF-κB in TPA-stimulated skin keratinocytes, western blot; format: cell-based, human; settings: for inhibitory effect on the NF-κB activation: overall conclusion of the NF-κB tests
Experimental: (§1) Herein, in order to verify the effect of novel synthetic YG-II-6 compounds and their lead compound, phytosphingosine, on phosphorylation and degradation of IκBα, which is a protein that inhibits the activity of NF-κB by forming a complex with NF-κB, skin keratinocytes were pre-treated with respective compounds for 1 hour and then stimulated with 400 nM TPA for 15 minutes and 30 minutes, respectively. In order to verify the phosphorylation of NF-κB and the expression level of NF-κB in the cytoplasm and nucleus, skin keratinocytes were stimulated for 15 minutes and 1 hour, respectively. The results were confirmed by western blot analysis. In addition, the nuclear translocation of NF-κB was confirmed through reaction with antibodies, fluorescent labeling, and direct observation by microscopy. In order to verify the activity of the respective compounds at the transcription stage, cells were transfected with plasmids labeled with NF-κB luciferase reporter, and the luciferase activity was measured by the luciferase assay. In addition, the phosphorylation of IκBα and NF-κB was measured in the PTA-stimulated mouse skin.

[2] = tested on: NF-κB; test: NF-κB luciferase reporter assay, TPA stimulation; format: cell-based, human; settings: FIG. 1C
Experimental: as §1

[3] = tested on: ERK1/2, p38, and JNK; test: MAP kinase phosphorylation in TPA-stimulated skin keratinocytes, western blot; format: cell-based, human; settings: 400 nM TPA for 15 minutes, FIG. 4
Experimental: In order to verify the effects of the respective compounds on MAP kinase, skin keratinocytes were treated with the respective compounds for 1 hour, and then stimulated with 400 nM TPA for 15 minutes. The level of phosphorylation was confirmed by western blot assay.

[4] = tested on: mouse skin tissues; test: Apoptosis in skin tissues of TPA-induced mice, FITC staining; format: in vivo; settings: FIGS. 7C to 7E
Experimental: (§2) Therefore, in order to verify the degree of the cytotoxicity of the YG-II-6 compounds, their cytotoxicity on human-derived keratinocytes was confirmed by using the WST-1 reagent. In order to verify the effects of the compounds on the expression of proteins associated with apoptosis, the keratinocytes were treated with corresponding concentrations of the respective compound samples and stimulated with TPA for 24 hours, and the expression levels of proteins were confirmed by western blot assay. In addition, human-derived keratinocytes and primary culture skin keratinocytes were treated with the compounds, and after 24 hours, subjected to FITC staining and TUNEL assay, and the skin tissues isolated from TPA-induced mice was subjected to FITC staining

[5] = tested on: human-derived keratinocytes; test: Cytotoxicity on human-derived keratinocytes, WST-1 reagent; format: cell-based; settings: WST-1, FIG. 7A
Experimental: as §2

[6] = tested on: human-derived keratinocytes and primary culture skin keratinocytes; test: Apoptosis in keratinocytes, FITC staining and TUNEL assay; format: cell-based; settings: 24 hours, FIGS. 7C to 7E
Experimental: as §2

[7] = tested on: NF-κB; test: Nuclear translocation of NF-κB, immunostaining, TPA-stimulated skin keratinocytes; format: cell-based, human; settings: TPA stimulation, FIG. 1B
Experimental: as §1

| Compound | inhibitory effect on the NF-κB activation [1] | phosphorylation of IκBα and NF-κB increased by TPA stimulation ([1]; skin keratinocytes, 1 hour pre-treatment, 400 nM TPA, FIG. 1A) | NF-κB luciferase activity increased by TPA stimulation [2] | phosphorylation of ERK1/2, p38, and JNK [3] | apoptosis in the mouse skin tissues [4] | concentration at which cytotoxicity was shown [5] [µM] | apoptosis in the TPA-stimulated cells [6] | nuclear translocation of NF-κB [7] |
| --- | --- | --- | --- | --- | --- | --- | --- | --- |
| CCCCCCCCCCCCCC[C@@H](O)[C@@H](O)[C@@H](N)CO [phytosphingosine] | inhibited the activation of NF-κB | inhibited the phosphorylation of IκBα and NF-κB | inhibited the luciferase activity | relatively weaker inhibitory activity than the YG-II-6 compounds; also recorded: no or little inhibitory effect | induced apoptosis | 5 to 10 | induced apoptosis | inhibited the nuclear translocation of NF-κB |
| CCCCCCCCCCCCCC[C@@H](O)[C@@H](O)[C@H](CO)NC(=O)/C=C/C(=O)O [fYG-II-6, (E)-4-oxo-4-(((2S,3S,4R)-1,3,4-trihydroxyoctadecan-2-yl)amino)but-2-enoic acid] | relatively greater inhibitory effect than mYG-II-6 | – | – | – | – | – | – | – |
